Our source for the EC50, Kd and Fold difference values is US8741946B2, “Inhibitors of flaviviridae viruses” (priority 2011, dated 2014).

Read-outs that look alike come from different tables or passages of the source.

One test concerns HCV replicon. Put plainly: HCV replicon assay in Huh-7 cells (luciferase). The class given is cell-based. Particulars: Hepatitis C virus, 72 h; Huh-7 HCV replicon cells, 3 days incubation, luciferase readout; read-out: Wild-type EC50. As to the method:
The anti-HCV activity of the compounds of this invention was tested in a human hepatoma Huh-7 cell line harboring a HCV replicon. The assay comprised the following steps:
Serial dilution was performed in 100% DMSO in a 384-well plate. A solution containing a compound at 225-fold concentration of the starting final serial dilution concentration was prepared in 100% DMSO and 15 μL added to the pre-specified wells in column 3 or 13 of a polypropylene 384-well plate. The rest of the 384-well plate was filled with 10 μL100% DMSO except for columns 23 and 24, where 10 μL of 500 uM a HCV protease inhibitor (ITMN-191) in 100% DMSO was added. The HCV protease inhibitor was used a control of 100% inhibition of HCV replication. The plate was then placed on a Biomek FX Workstation to start the serial dilution. The serial dilution was performed for ten cycles of 3-fold dilution from column 3 to 12 or from column 13 to 22.
To each well of a black polypropylene 384-well plate, 90 μL of cell media containing 1600 suspended Huh-7 HCV replicon cells was added with a Biotek uFlow Workstation. A volume of 0.4 μL of the compound solution was transferred from the serial dilution plate to the cell culture plate on a Biomek FX Workstation. The DMSO concentration in the final assay condition was 0.44%. The plates were incubated for 3 days at 37° C. with 5% CO2 and 85% humidity.
a) Assessment of cytotoxicity: The media in the 384-well cell culture plate was aspirated with a Biotek EL405 plate-washer. A volume of 50 μL of a solution containing 400 nM Calcein AM in 100% PBS was added to each well of the plate with a Biotek uFlow Workstation. The plate was incubated for 30 minutes at room temperature before the fluorescence signal ([…]) was measured with a Perkin Elmer Envision Plate Reader.
b) Assessment of inhibition of viral replication: The calcein-PBS solution in the 384-well cell culture plate was aspirated with a Biotek EL405 plate-washer. A volume of 20 μL of Dual-Glo luciferase buffer (Promega, Dual-Glo Luciferase Assay Reagent, cat. #E298B) was added to each well of the plate with a Biotek uFlow Workstation. The plate was incubated for 10 minutes at room temperature. A volume of 20 μL of a solution containing 1:100 mixture of Dual-Glo Stop & Glo substrate (Promega, Dual-Glo Luciferase Assay Reagent, cat. #E313B) and Dual-Glo Stop & Glo buffer (Promega, Dual-Glo Luciferase Assay Reagent, cat. #E314B) was then added to each well of the plate with a Biotek uFlow Workstation. The plate was incubated at room temperature for 10 minutes before the luminescence signal was measured with a Perkin Elmer Envision Plate Reader.
The percent cytotoxicity was determined by calcein AM conversion to fluorescent product. The average fluorescent signal from the DMSO control wells were defined as 100% nontoxic. The individual fluorescent signal from testing compound treated well was divided by the average signal from DMSO control wells and then multiplied by 100% to get the percent viability. The percent anti-HCV replication activity was determined by the luminescence signal from the testing well compared to DMSO controls wells. The background signal was determined by the average luminescence signal from the HCV protease inhibitor treated wells and was subtracted from the signal from the testing wells as well as the DMSO control wells. Following 3-fold serial dilutions, the EC50 and CC50 values were calculated by fitting % inhibition at each concentration to the following equation: % inhibition=100%/[(EC50/[I])^b+1]
Where b is Hill's coefficient. See, for reference, Hill, A. V., The Possible Effects of the Aggregation of the Molecules of Hemoglobin on its Dissociation Curves, J. Physiol. 40: iv-vii. (1910).
% inhibition values at a specific concentration, for example 2 μM, can also be derived from the formula above.
In general terms: A replicon is a self-replicating genome or part of one, used to study replication in cells.

Test [1] concerns the target T1, NS5B mutant M423T (amino acids 1-570; GT-1b) (Hepatitis C virus genotype 1b, UniProt Q9WMX2, M2842T).
T1 construct: 21 residue C-terminal truncated forms of the NS5b protein (amino acids 1-570); GT-1b; made in house
Put plainly: Surface Plasmon Resonance binding affinity to M423T NS5B. Set-up: species or system HCV GT-1b. From the text: (§1) Compounds with minimal fold difference in binding affinity may have particular clinical utility.
(§2) In vitro studies with NS5B employed soluble, 21 residue C-terminal truncated forms of the NS5b protein (amino acids 1-570; GT-1b; wild-type and mutant M423T. See Hung, M., Wang, R., Liu, X.: ‘Preparation of HCV NS3 and NS5B to support small molecule drug discovery’, Current Protocols in Pharmacology, 2011, in press). Surface Plasmon Resonance (SPR) was used to measure the binding affinity of compounds described herein to the protein constructs. Standard amine coupling was employed to link the protein to the surface of a Biacore CM5 sensor chip using 10 mM sodium acetate pH 5.5 buffer to an immobilization level of ˜2500 RU. Experiments were performed using a Biacore T100 system at 25° C. in running buffer (50 mM Hepes pH 7.5, 5 mM MgCl2, […], 1 mM EDTA, 1 mM TCEP, 0.01% P20, 5% DMSO). Compounds were tested in a 3-fold concentration dilution series for 8 concentrations starting at 162 nM, using an association phase of 60 seconds and dissociation phase of 5 minutes at a flow rate of 100 μl min^−1. At the end of each binding cycle, a 3-second injection of a buffer (10 mM disodium tetraborate, 1M NaCl, pH8.5) at 40 μl min^−1 was used as a regeneration step to remove compounds still bound to the NS5B surface. Response data were processed using the following procedure: injections aligned in X and Y directions, double referenced using both a reference surface and buffer injections, and DMSO correction for excluded volume effects. Processed data were analyzed using non-linear least squares analysis with a global fit of a 1:1 binding model with mass transport.

Test [2] deals with NS5B mutant M423T (amino acids 1-570; GT-1b). Described as above. Set-up: species or system HCV GT-1b. The note with it: M423T KD versus wild-type KD.
Description: as §1, §2

Test [3] addresses T2, wild-type NS5B (amino acids 1-570; GT-1b) (Hepatitis C virus genotype 1b, UniProt Q9WMX2).
T2 construct: 21 residue C-terminal truncated forms of the NS5b protein (amino acids 1-570); GT-1b; made in house
Put plainly: Surface Plasmon Resonance binding affinity to wild-type NS5B. Set-up: species or system HCV GT-1b.
Description: as §1, §2

For test [4], the system named is genotype 1b (Con-1 strain) HCV replicon, wild-type. Put plainly: Transient transfection replicon assay, wild-type PI-hRluc replicon in Huh-lunet cells. The test is classed as cell-based, HCV genotype 1b (Con-1 strain). Particulars: Hepatitis C virus, 72 h, wild-type genotype 1b PI-hRluc replicon, three days.
Test [5] relates to genotype 1b (Con-1 strain) HCV replicon with NS5B M423T mutation. Description: Transient transfection replicon assay, NS5B M423T mutant PI-hRluc replicon in Huh-lunet cells. The class given is cell-based, HCV genotype 1b (Con-1 strain). The note with it: Hepatitis C virus, 72 h, read-out: Replicon transient transfection EC50 M423T.
Where [6] appears, read: SPR, Biacore T100, 25° C., wild-type NS5B, read-out: Wild-type KD.

The term EC50 denotes the concentration giving half of the maximal effect. The term Kd denotes the equilibrium constant for the complex coming apart. Take `CC1=CC[C@H](C(=O)N(c2cc(C#CC(C)(C)C)sc2C(=O)O)C(C)C)[C@H](C)C1` (single isomer, unassigned) [Example 1]: in the test with HCV replicon, the EC50 was 8 nM. The Kd turned out to be 7.7 nM in test [1] and 1.4 nM in test [3] (setting [6]). The molecule further registered a Fold difference in test [2] of 5.6.

Regarding `CC1=CC[C@@H](C(=O)N(c2cc(C#CC(C)(C)C)sc2C(=O)O)C(C)C)[C@H](C)C1` (single isomer, unassigned) [Example 2], in the test with HCV replicon, the EC50 came out at 5 nM. The Kd is 26.8 nM in test [1] and 2.8 nM in test [3] (setting [6]). The same molecule showed a Fold difference in test [2] of 9.5.

In the case of `CC(C)N(c1cc(C#CC(C)(C)C)sc1C(=O)O)C(=O)[C@H]1CC[C@H](C)CC1` [Comparative example 1, 5-(3,3-Dimethylbut-1-ynyl)-3-((1r,4r)-N-isopropyl-4-methylcyclohexanecarboxamido)thiophene-2-carboxylic acid, reference compound], the EC50 in test [4] is 26 nM; with HCV replicon, 26 nM; in test [5], 293 nM. For the same molecule, the values for the Kd in test [1] and in test [3] (setting [6]) were 2.78 nM and 1.7 nM, respectively. The Fold difference in test [2] is 16.

Take `CC(C)(C)C#Cc1cc(N(C(=O)[C@H]2CC[C@H](C)CC2)[C@H]2CC[C@H](O)CC2)c(C(=O)O)s1` [Comparative example 2, 5-(3,3-Dimethylbut-1-ynyl)-3-((1r,4R)—N-((1r,4R)-4-hydroxycyclohexyl)-4-methylcyclohexanecarboxamido)thiophene-2-carboxylic acid, reference compound]: the EC50 is 10 nM in test [4], 6 nM in the test on HCV replicon and 343 nM in test [5].

Take `CC(C)N(C(=O)[C@H]1CC[C@H](C)C[C@@H]1C)c1cc(C#CC(C)(C)C)sc1C(=O)O` [Comparative example 3, 5-(3,3-Dimethylbut-1-ynyl)-3-((1S,2S,4S)—N-isopropyl-2,4-dimethylcyclohexanecarboxamido)thiophene-2-carboxylic acid, reference compound]: in the test on HCV replicon, the EC50 came out at 50 nM.

`CC(C)N(C(=O)[C@@H]1CC[C@@H](C)C[C@H]1C)c1cc(C#CC(C)(C)C)sc1C(=O)O` [Comparative example 4, 5-(3,3-Dimethylbut-1-ynyl)-3-((1R,2R,4R)—N-isopropyl-2,4-dimethylcyclohexanecarboxamido)thiophene-2-carboxylic acid, reference compound]: the EC50 with HCV replicon was 8 nM. The values for the Kd in test [1] and in test [3] (setting [6]) were 144 nM and 3.6 nM, respectively. The Fold difference in test [2] is 40.

On to `CC1=CC[C@H](C(=O)N(c2cc(C#CC(C)(C)C)sc2C(=O)O)C(C)C)[C@@H](C)C1` [Example 3, 5-(3,3-Dimethylbut-1-ynyl)-3-((1S,6S)—N-isopropyl-4,6-dimethylcyclohex-3-enecarboxamido)thiophene-2-carboxylic acid], for which the EC50 in test [4] worked out at 5 nM; in the test on HCV replicon, 5 nM; in test [5], 14 nM. For the same molecule, the values for the Kd in test [1] and in test [3] (setting [6]) were 4.2 nM and 0.7 nM, respectively.

On to `CC1=CC[C@@H](C(=O)N(c2cc(C#CC(C)(C)C)sc2C(=O)O)C(C)C)[C@@H](C)C1` [Example 4, 5-(3,3-dimethylbut-1-ynyl)-3-((1R,6S)—N-isopropyl-4,6-dimethylcyclohex-3-enecarboxamido)thiophene-2-carboxylic acid], for which, in the test with HCV replicon, the EC50 stood at 38 nM. In addition, the figures for the Kd in test [1] and in test [3] (setting [6]) were 18.5 nM and 6.5 nM, respectively.

In the case of `CC1=CC[C@@H](C(=O)N(c2cc(C#CC(C)(C)C)sc2C(=O)O)C(C)C)CC1` [Example 5, (S)-5-(3,3-Dimethylbut-1-ynyl)-3-(N-isopropyl-4-methylcyclohex-3-enecarboxamido)thiophene-2-carboxylic acid], the EC50 in the test on HCV replicon stood at 10 nM. Further, the Kd in test [1] stood at 13.7 nM; in test [3] it was 1.5 nM. For the same molecule, the Fold difference in test [2] is 9.0.

`CC1=CC[C@H](C(=O)N(c2cc(C#CC(C)(C)C)sc2C(=O)O)C(C)C)CC1` [Example 6, (R)-5-(3,3-Dimethylbut-1-ynyl)-3-(N-isopropyl-4-methylcyclohex-3-enecarboxamido)thiophene-2-carboxylic acid]: the EC50 in test [4] turned out to be 8 nM; in the test on HCV replicon, 7 nM; in test [5], 40 nM. The Kd amounted to 14.3 nM in test [1] and 1.3 nM in test [3] (setting [6]). In addition, the Fold difference in test [2] was 11.

Take `CC1=CC[C@H](C(=O)N(c2cc(C#CC(C)(C)C)sc2C(=O)O)[C@H]2CC[C@H](O)CC2)[C@@H](C)C1` [Example 7, 5-(3,3-Dimethylbut-1-ynyl)-3-((1S,6S)—N-((1r,4S)-4-hydroxycyclohexyl)-4,6-dimethylcyclohex-3-enecarboxamido)thiophene-2-carboxylic acid]: the EC50 in the test on HCV replicon is below 4.5 nM.

Consider `CC1=CC[C@H](C(=O)N(c2cc(C#CC(C)(C)C)sc2C(=O)O)[C@H]2CC[C@H](O)CC2)CC1` [Example 8, 5-(3,3-Dimethylbut-1-ynyl)-3-((R)—N-((1r,4R)-4-hydroxycyclohexyl)-4-methylcyclohex-3-enecarboxamido)thiophene-2-carboxylic acid], for which the EC50 in the test on HCV replicon was below 2.3 nM.
